pEC50: −log10 of the molar value.
Key:
[1] = system: cultures prepared from GLT-1 null mice; assay: Chronic motor neurodegeneration model in cultures prepared from GLT-1 null mice; format: cell-based; details: not shown
[2] = system: large ventral horn motor neurons in organotypic spinal cord cultures; assay: In vitro model of chronic motor neurodegeneration (THA, organotypic spinal cord cultures); format: cell-based, rat; details: THA 100 μM, ceftriaxone 0 to 100 μM, 4 weeks
Procedure: In vitro model of chronic motor neurodegeneration (FIG. 7B). A model of chronic neurodegeneration was used, based on the blockade of glutamate transport in spinal cord organotypic cultures, with the non specific inhibitor threo-hytdroyxaspartate (THA) or TBOA. Chronic incubation of cultures with THA (or TBOA) leads to chronic increase in extra cellular glutamate and subsequent slow death of motor neurons (over 4 weeks).
To determine if drug induced GLT1 promoter activation, and the subsequent over expression of GLT1 protein could be neuroprotective, we used the organotypic spinal cord paradigm. Organotypic spinal cord cultures were prepared from lumbar spinal cords of 8-day-old rat pups, as described previously. […] No drugs were added for the first 7 days following culture preparation. THA was then added to experimental cultures at a concentration of 100 μM, which produces death of motor neurons within 3 to 4 weeks. […] After 4 weeks, cultures were fixed, and immuostained for neurofilament (SMI-32, Sternberger) to quantify large ventral horn motor neurons (a well established method to follow motor neuron survival in this system).

[3] = system: primary cortical mixed neuronal-glial cell cultures; details: 1 μM added 48 hours prior to 1 hour OGD; 50% without drug
Procedure: Method. Primary cortical mixed neuronal-glial cell cultures are prepared from gestation day 14-16 CD1 mice. The preparation of these cultures from mouse fetal cortex is well-described. Experiments are performed at days in vitro 13-15. In the experimental condition, cultures are subjected to oxygen glucose deprivation (OGD), an in-vitro model of ischemia. Cortical cells are either subjected to control treatment (media, modified Earle's balanced salt solution including glucose and bubbled with 5% CO2 95% O2, is changed alongside treatment groups, but no OGD is performed), or 5 minutes (sublethal) of OGD (using modified Earle's balanced salt solution which is devoid of glucose and bubbled with 10% H2, 85% N2, and 5% to deoxygenate). Anaerobic conditions are achieved using an anaerobic chamber at 37° C. OGD is terminated by exchange of media back to oxygenated growing medium. Twenty-four hours following the above, cortical cells are subjected either to no treatment, or one hour of OGD. Neuronal survival is determined by computer-assisted cell counting after staining with the fluorescent vital dyes propidium iodide (as an indicator of neuronal death) and Hoechst 33342 (as an indicator of total number of neurons) and is presented as percent of cell death. Glial nuclei fluoresce at a lower intensity and are gated out. […] Following 1 hour OGD, cells are returned to growing medium without drugs.

EAAT2 = assay: Spinal cord organotypic culture screen for EAAT2 protein expression (slot blot); format: cell-based, rat
Procedure: Screening Assay for EAAT2 Protein overexpression. […] Organotypic Spinal Cord. […] Briefly, 300 um sections of rat lumbar spinal cord, from postnatal day 8-10 rat pups, are placed on Millipore Millicell CM semipermeable membranes. Each well contains 5 slices (FIG. 2A). […] Each drug (10-100 μM) was added for 3 days, along with cell culture medium/serum. Cultures were harvested and 5-50 μg of tissue was applied to slot blot apparatus for detection of EAAT2 by standard Western blotting/chemiluminescence methods described in the past. […] All antipeptide antibodies were affinity purified and highly specific for transporter subtypes. […] For each antibody slot blot, the homogenates used are expected to be within the linear range for antibody detection, based on prior standard curves. Screening Library-Assay Design. […] The library is composed of 1040 compounds in 96 well plates, that also included positive control for transporter synthesis (dibutyryl cyclic AMP [dbcAMP], GDNF). […] Each compound was studied at a final concentration of 10-100 μM. All assays were performed in duplicate. Data Analysis. All blots were analyzed by laser densitometry (BioRad Image Quant) and the duplicate points were averaged. Each blot included a positive control standard (e.g. dbcAMP) and a negative control standard (e.g. serum, DMSO). […]

G93A SOD1 mice = assay: In vivo neuroprotection in the G93A SOD1 mouse
From the text: Numerous studies have documented a contributory role for excess glutamate in this mouse model- and role for modulating glutamate receptors or transporters in neuroprotective strategies. Guo H., et al. Hum Mol Genet. 2003; 12:2519-2532. Modest over expression—by a transgenic approach—can alter disease onset and/or survival.

[4] = 200 mg/kg ip from approximately 12 weeks of age

SMILES: CO/N=C(\C(=O)N[C@@H]1C(=O)N2C(C(=O)O)=C(CSc3nc(=O)c(=O)[nH]n3C)CS[C@H]12)c1csc(N)n1 [ceftriaxone]
- neuroprotection in GLT-1 null cultures [1]: neuroprotection cannot be seen
- motor neuron loss [2]: prevented motor neurons loss in a dose dependent manner
- percentage of neuronal cell death after 1 hour OGD [3]: 20%
- increase of GLT1 protein and function (EAAT2; at the concentration used for neuroprotection (Preliminary Data Phases 1 and 2)): at least 3 fold
- pEC50 (EAAT2; follow-up dose response analysis, spinal cord organotypic cultures): 5.46
- duration of strength effect (G93A SOD1 mice; [4]): 4 weeks
- time after treatment at which strength effect was observed (G93A SOD1 mice; [4]): ≤ 7 days
- increase in over all survival (G93A SOD1 mice; 200 mg/kg ip from approximately 12 weeks of age (disease onset)): 7 to 10 days
- loss of muscle strength (grip strength) (G93A SOD1 mice; 200 mg/kg ip from approximately 12 weeks of age, preservation lost by 18 weeks of age): significantly delayed loss of muscle strength

Source: patent US20060121488A1, “Glutamate transport modulatory compounds and methods” (priority 2003, published 2006)
